Laboratory results: EP3839043A1, “SCREENING METHODS FOR COMPOUNDS MODULATING POLYAMINE TRANSPORT” (Katholieke Universiteit Leuven, priority 2019, dated 2021)
Marks after values point to notes of the source that are not given here.

Assays:
[1] = biological target: T1, Microsomal ATP13A2 (Homo sapiens, UniProt Q9NQ11); assay: ATPase assay (ADP-Glo Max), solubilized microsomes of SH-SY5Y cells overexpressing ATP13A2 WT; assay type: biochemical; settings: for ATPase activity of ATP13A2 WT, screen for candidate substrates: 100 nM CaCl2, MnCl2, ZnCl2 or FeCl3, 100 µM SPD or SPM; for Vmax ± SEM: Microsomal ATP13A2; for ATPase activity of ATP13A2, dose-response: indicated doses, microsomes 5 µg
T1 construct: expressed in transfected cells; host or cells: SH-SY5Y human neuroblastoma cells, lentiviral transduction; microsomes solubilised with DDM
T1 sequence (Q9NQ11 1-1175 isoform Q9NQ11-3): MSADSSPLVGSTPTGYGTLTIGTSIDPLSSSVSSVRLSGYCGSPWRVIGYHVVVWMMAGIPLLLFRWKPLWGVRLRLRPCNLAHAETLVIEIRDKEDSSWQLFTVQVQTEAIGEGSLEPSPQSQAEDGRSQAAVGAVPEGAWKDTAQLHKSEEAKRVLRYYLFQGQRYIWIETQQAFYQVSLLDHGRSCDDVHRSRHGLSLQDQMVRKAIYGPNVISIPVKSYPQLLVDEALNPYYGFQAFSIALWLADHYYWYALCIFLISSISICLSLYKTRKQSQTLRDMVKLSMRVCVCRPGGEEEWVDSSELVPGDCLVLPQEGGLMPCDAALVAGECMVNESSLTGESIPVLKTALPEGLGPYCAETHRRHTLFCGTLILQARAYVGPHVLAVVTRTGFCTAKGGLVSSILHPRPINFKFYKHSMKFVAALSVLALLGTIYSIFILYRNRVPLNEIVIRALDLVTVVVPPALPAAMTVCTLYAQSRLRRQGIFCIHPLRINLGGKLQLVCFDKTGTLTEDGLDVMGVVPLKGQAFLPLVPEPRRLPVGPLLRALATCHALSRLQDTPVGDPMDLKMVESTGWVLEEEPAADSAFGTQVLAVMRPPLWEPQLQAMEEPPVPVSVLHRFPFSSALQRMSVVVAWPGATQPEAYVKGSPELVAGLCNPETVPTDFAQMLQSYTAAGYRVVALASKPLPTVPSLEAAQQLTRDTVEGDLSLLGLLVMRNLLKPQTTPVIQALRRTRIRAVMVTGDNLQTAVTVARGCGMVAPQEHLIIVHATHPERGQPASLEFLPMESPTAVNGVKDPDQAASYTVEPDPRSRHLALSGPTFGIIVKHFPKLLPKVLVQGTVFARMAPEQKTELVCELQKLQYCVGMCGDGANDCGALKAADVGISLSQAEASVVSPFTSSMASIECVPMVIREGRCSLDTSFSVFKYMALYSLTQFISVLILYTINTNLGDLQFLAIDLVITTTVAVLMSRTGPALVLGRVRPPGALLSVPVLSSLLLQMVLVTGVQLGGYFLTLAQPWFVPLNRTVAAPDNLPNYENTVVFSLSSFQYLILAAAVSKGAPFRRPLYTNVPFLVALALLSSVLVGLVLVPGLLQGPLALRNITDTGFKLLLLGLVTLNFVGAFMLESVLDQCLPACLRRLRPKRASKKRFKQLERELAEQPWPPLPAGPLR
Method: Membrane fractionation - Transduced SH-SY5Y cells were seeded in […] at a density of 6 x 10^6 cells per plate. 24 h later, the cells were harvested following trypsinization and brief centrifugation (300 x g, 5 min). Subcellular fractionation was performed by differential centrifugation. The microsomal protein concentration was measured using the bicinchoninic acid assay (Thermo Fischer Scientific, Pierce) according to the manufacturer's instructions.
ATPase assay - The ATPase activity of ATP13A2 was assessed using a commercially available luminescence assay (ADP-Glo Max assay, Promega) that monitors the production of ADP via luciferase activity. The reactions were performed for 30 min (37°C) in a final volume of 25 µl. […] The assay was started by the addition of 5 mM ATP and was terminated by adding 25 µl of ADP-Glo Reagent. The 96-well plate was then incubated for 40 min at room temperature, followed by the addition of 50 µl of ADP-Glo Max Detection Reagent. After 40 min, luminescence was detected using a FlexStation 3.0 system (Molecular Devices). Dose-response curves and n/Km/Vmax values were calculated using GraphPad Prism Software (GraphPad Software Inc.).

[2] = system: SH-SY5Y cells; assay: MUH cytotoxicity assay; assay type: cell-based, human; settings: increasing concentrations, 24 h
Method: MUH cytotoxicity assay - SH-SY5Y cells were seeded in 96-well plates (1 X 10^4 cells per well) and allowed to adhere overnight. The cells were subsequently treated with increasing doses of the indicated compounds for 24-48 h. Following exposure, the cells were washed with PBS and stained with 300 µg/ml MUH (prepared in DMSO, dissolved in PBS) for 30 min at 37°C.

Row | Structure (SMILES) | ATPase activity of ATP13A2 WT, screen for candidate substrates [1] | Vmax ± SEM [1] | ATPase activity of ATP13A2, dose-response [1] | viability of control cells [2] | Hill coefficient of SPM-induced ATPase activity ([1]; microsomal ATP13A2 WT)
1 | NCCCCNCCCN [Spermidine, spermidine] | significantly stimulated ATPase activity | ∼ 106* nmol ADP/mg/min | stimulate ATPase activity in a concentration-dependent manner | reduced the viability | –
2 | NCCCNCCCCNCCCN [Spermine, spermine] | significantly stimulated ATPase activity | 140 ± 6 nmol ADP/mg/min | stimulate ATPase activity in a concentration-dependent manner | reduced the viability | approaches one
